Experimental data as given in the NIST ThermoML archive (doi:10.1016/j.fluid.2009.02.001).
Where “and” joins values, the source holds several entries; their conditions need not be identical. Equal entries are not always repeated.

Assays:
[1] = for vapor or sublimation pressure: Liquid; for Normal melting temperature: Crystal, DTA
[2] = Molar enthalpy of transition or fusion; details: Crystal; DSC

CC(=O)Nc1ccc(Br)cc1 [N-(4-bromophenyl)acetamide]
vapor or sublimation pressure, [1]
Details | Isothermal thermogravimetry | Nonisothermal thermogravimetry
444.2 K | – | 0.304 kPa
446.2 K | 0.384 kPa and 0.382 kPa | –
446.3 K | 0.353 kPa | –
446.4 K | – | 0.366 kPa
447.1 K | 0.381 kPa | –
447.7 K | 0.394 kPa | –
448.2 K | 0.422 kPa | –
448.4 K | – | 0.398 kPa
449.4 K | 0.415 kPa | –
449.9 K | 0.443 kPa | –
450.2 K | 0.453 kPa | 0.443 kPa
451.3 K | 0.447 kPa | –
452.1 K | 0.489 kPa | –
452.2 K | 0.496 kPa | –
452.3 K | – | 0.579 kPa
453.4 K | 0.528 kPa | –
453.6 K | 0.494 kPa | –
454.2 K | 0.539 kPa | –
454.4 K | – | 0.621 kPa
455.3 K | 0.54 kPa | –
455.9 K | 0.584 kPa | –
456.3 K | 0.606 kPa | –
456.4 K | – | 0.611 kPa
457.6 K | 0.605 kPa | –
457.8 K | 0.634 kPa | –
458.2 K | 0.65 kPa | –
458.3 K | – | 0.712 kPa
459.3 K | 0.67 kPa | –
459.5 K | 0.693 kPa | –
460.2 K | 0.732 kPa | –
460.3 K | – | 0.793 kPa
461.5 K | 0.724 kPa | –
462 K | 0.777 kPa | –
462.2 K | 0.793 kPa | 0.882 kPa
463.5 K | 0.793 kPa | –
463.6 K | 0.84 kPa | –
464.2 K | 0.862 kPa | –
464.3 K | – | 0.953 kPa
465.2 K | 0.855 kPa | –
465.9 K | 0.911 kPa | –
466.1 K | 0.943 kPa | –
466.2 K | – | 0.998 kPa
467.1 K | 0.927 kPa | –
468.2 K | 1.011 kPa | –
468.3 K | 1.006 kPa | 1.147 kPa
469.2 K | 1.005 kPa | –
470.2 K | 1.098 kPa and 1.075 kPa | –
470.3 K | – | 1.074 kPa
471.1 K | 1.086 kPa | –
472.1 K | 1.208 kPa | –
472.2 K | – | 1.398 kPa
472.4 K | 1.175 kPa | –
473.2 K | 1.17 kPa | –
474.1 K | 1.285 kPa | –
474.3 K | – | 1.482 kPa
475.3 K | 1.239 kPa | –
476.2 K | 1.381 kPa | 1.497 kPa
478.3 K | – | 1.779 kPa
480.2 K | – | 1.749 kPa
482.3 K | – | 1.937 kPa
484.3 K | – | 2.151 kPa
486.2 K | – | 2.296 kPa
488.3 K | – | 2.466 kPa
490.2 K | – | 2.741 kPa
492.2 K | – | 2.83 kPa
494.3 K | – | 3.134 kPa
496.2 K | – | 3.347 kPa
498.3 K | – | 3.604 kPa
500.3 K | – | 3.812 kPa
502.2 K | – | 4.149 kPa
504.3 K | – | 4.419 kPa
506.2 K | – | 4.593 kPa
508.2 K | – | 4.944 kPa
510.2 K | – | 5.307 kPa
512.2 K | – | 5.584 kPa
514.4 K | – | 5.847 kPa
516.2 K | – | 6.243 kPa

Details | Molar enthalpy of transition or fusion [kcal/mol]
[2] | 6.21

CCOc1ccc(NC(C)=O)cc1 [N-(4-ethoxyphenyl)ethanamide]
vapor or sublimation pressure, [1]
Details | Isothermal thermogravimetry | Nonisothermal thermogravimetry
418.2 K | – | 0.088 kPa
420.2 K | – | 0.087 kPa
422.2 K | – | 0.102 kPa
424.3 K | – | 0.106 kPa
426.2 K | – | 0.146 kPa
428.2 K | – | 0.146 kPa
430.3 K | – | 0.162 kPa
432.3 K | – | 0.171 kPa
434.3 K | – | 0.199 kPa
438.2 K | – | 0.247 kPa
440.2 K | – | 0.259 kPa
442.2 K | – | 0.309 kPa
444.2 K | – | 0.329 kPa
446.2 K | – | 0.401 kPa
448.2 K | – | 0.396 kPa
450.2 K | – | 0.452 kPa
452.2 K | – | 0.479 kPa
454.2 K | – | 0.538 kPa
456.3 K | – | 0.589 kPa
458.2 K | – | 0.643 kPa
460.2 K | – | 0.707 kPa
460.3 K | 0.821 kPa | –
461.1 K | 0.829 kPa | –
461.9 K | 0.815 kPa | –
462.2 K | 0.899 kPa | 0.785 kPa
463.3 K | 0.958 kPa | –
464.1 K | 0.935 kPa | –
464.3 K | 0.96 kPa | 0.84 kPa
465.5 K | 1.054 kPa | –
466.2 K | 1.028 kPa and 1.087 kPa | –
466.3 K | – | 0.936 kPa
467.4 K | 1.116 kPa | –
468.1 K | 1.149 kPa | –
468.2 K | – | 1.057 kPa
468.3 K | 1.165 kPa | –
469.3 K | 1.242 kPa | –
470 K | 1.259 kPa | –
470.2 K | – | 1.11 kPa
470.3 K | 1.273 kPa | –
471 K | 1.26 kPa | –
471.8 K | 1.327 kPa | –
472.2 K | 1.381 kPa | 1.192 kPa
473.3 K | 1.377 kPa | –
474 K | 1.484 kPa | –
474.2 K | – | 1.324 kPa
474.3 K | 1.551 kPa | –
475.4 K | 1.567 kPa | –
476.1 K | 1.571 kPa | –
476.2 K | 1.666 kPa | 1.4 kPa
477.6 K | 1.691 kPa | –
478.3 K | 1.709 kPa and 1.766 kPa | 1.559 kPa
479.1 K | 1.789 kPa | –
479.8 K | 1.808 kPa | –
480.2 K | 1.915 kPa | 1.679 kPa
481.2 K | 2.014 kPa | –
482 K | 2.037 kPa | –
482.3 K | 2.099 kPa | 1.802 kPa
483.3 K | 2.204 kPa | –
484.1 K | 2.228 kPa | –
484.3 K | 2.276 kPa | 1.945 kPa
485.3 K | 2.4 kPa | –
486 K | 2.495 kPa | –
486.2 K | 2.488 kPa | 2.088 kPa
487.1 K | 2.633 kPa | –
487.8 K | 2.702 kPa | –
488.2 K | – | 2.229 kPa
488.3 K | 2.686 kPa | –
489 K | 2.881 kPa | –
489.8 K | 2.981 kPa | –
490.2 K | 2.941 kPa | –
490.3 K | – | 2.41 kPa
491.1 K | 3.159 kPa | –
492.3 K | – | 2.535 kPa
494.3 K | – | 2.717 kPa
496.2 K | – | 2.889 kPa
498.2 K | – | 3.001 kPa
500.3 K | – | 3.29 kPa
502.3 K | – | 3.213 kPa

Details | Molar enthalpy of transition or fusion [kcal/mol] | Normal melting temperature [°C]
[1] | – | 136.5
[2] | 7.17 | –

CC(=O)Nc1ccc(O)cc1 [N-acetyl-p-aminophenol]
vapor or sublimation pressure [kPa], [1]
Details | Isothermal thermogravimetry | Nonisothermal thermogravimetry
477.3 K | 0.194 | 0.197
478.8 K | 0.1996 | –
479.3 K | 0.206 | 0.204
480 K | 0.225 | –
480.8 K | 0.2307 | –
481.4 K | 0.249 | 0.25
482 K | 0.2601 | –
482.9 K | 0.2539 | –
483.2 K | 0.276 | 0.259
483.8 K | 0.2861 | –
484.7 K | 0.2838 | –
485.2 K | 0.303 | –
485.9 K | 0.3199 | –
486.7 K | 0.3264 | –
487.3 K | 0.336 | 0.341
487.9 K | 0.3679 | –
488.8 K | 0.3624 | –
489.3 K | 0.365 | 0.315
490 K | 0.3891 | –
490.8 K | 0.3978 | –
491.2 K | 0.409 | 0.468
491.8 K | 0.437 | –
492.7 K | 0.449 | –
493.3 K | 0.44 | 0.447
493.9 K | 0.482 | –
494.8 K | 0.4882 | –
495.4 K | 0.492 | 0.504
496 K | 0.524 | –
496.9 K | 0.5169 | –
497.2 K | 0.554 | –
497.9 K | 0.5547 | –
498.7 K | 0.5818 | –
499.3 K | 0.61 | 0.669
499.9 K | 0.6246 | –
500.8 K | 0.6364 | –
501.4 K | 0.677 | –
502 K | 0.6832 | –
502.9 K | 0.7129 | –
503.2 K | 0.733 | 0.729
503.4 K | – | 0.838
503.8 K | 0.765 | –
504.7 K | 0.7889 | –
505.2 K | 0.815 | 0.861
505.8 K | 0.8468 | –
506.7 K | 0.8517 | –
507.2 K | 0.888 | 0.945
507.9 K | 0.9142 | –
508.7 K | 0.933 | –
509.3 K | – | 1.037
511.3 K | – | 1.207
513.4 K | – | 1.178
515.4 K | – | 1.41
517.2 K | – | 1.544
519.2 K | – | 1.696
521.3 K | – | 1.757
523.2 K | – | 2.012
525.3 K | – | 2.197
527.3 K | – | 2.32
529.2 K | – | 2.607
531.2 K | – | 2.823
533.3 K | – | 3.064
535.4 K | – | 3.295
537.2 K | – | 3.552
539.3 K | – | 4.01
541.3 K | – | 4.144
543.3 K | – | 4.653
545.4 K | – | 5.059
547.4 K | – | 5.373
549.2 K | – | 5.759
551.2 K | – | 6.208
553.2 K | – | 6.719
557.3 K | – | 7.824
559.4 K | – | 8.304
561.2 K | – | 8.944

Details | Molar enthalpy of transition or fusion [kcal/mol] | Normal melting temperature [°C]
[1] | – | 172.5
[2] | 6.45 | –
